Values quoted from earlier work in patent US20230181675A1, “NOVEL FORMUATIONS” (ARECOR LIMITED, priority 2020, published 2023).

Conditions: at 25° C.

Row | Compound | logK metal binding stability constant with respect to zinc ion binding
1 | O=C(O)CC(O)(CC(=O)O)C(=O)O [Citrate] | 4.93
2 | O=C(O)CN(CCN(CC(=O)O)CC(=O)O)CC(=O)O [EDTA, ethylenediaminetetraacetate] | 14.5
3 | O=C(O)CN(CCOCCOCCN(CC(=O)O)CC(=O)O)CC(=O)O [EGTA, ethyleneglycoltetraacetate] | 12.6
